According to patent publication US20260124214A1, “HETEROCYCLIC COMPOUNDS FOR USE IN THE TREATMENT OF CANCER” (ARTIOS PHARMA LIMITED, priority 2021, published 2026):
pKi: −log10 of the molar value. Where a name gives a salt, the structure may show the parent alone.

Biological target: T1, Human Polθ polymerase domain (aa1820-2590) (Homo sapiens, UniProt O75417)
T1 construct: Human Polθ polymerase domain (aa1820-2590) was expressed in E. Coli; made in house; host or cells: E. coli
T1 sequence (O75417 1820-2590): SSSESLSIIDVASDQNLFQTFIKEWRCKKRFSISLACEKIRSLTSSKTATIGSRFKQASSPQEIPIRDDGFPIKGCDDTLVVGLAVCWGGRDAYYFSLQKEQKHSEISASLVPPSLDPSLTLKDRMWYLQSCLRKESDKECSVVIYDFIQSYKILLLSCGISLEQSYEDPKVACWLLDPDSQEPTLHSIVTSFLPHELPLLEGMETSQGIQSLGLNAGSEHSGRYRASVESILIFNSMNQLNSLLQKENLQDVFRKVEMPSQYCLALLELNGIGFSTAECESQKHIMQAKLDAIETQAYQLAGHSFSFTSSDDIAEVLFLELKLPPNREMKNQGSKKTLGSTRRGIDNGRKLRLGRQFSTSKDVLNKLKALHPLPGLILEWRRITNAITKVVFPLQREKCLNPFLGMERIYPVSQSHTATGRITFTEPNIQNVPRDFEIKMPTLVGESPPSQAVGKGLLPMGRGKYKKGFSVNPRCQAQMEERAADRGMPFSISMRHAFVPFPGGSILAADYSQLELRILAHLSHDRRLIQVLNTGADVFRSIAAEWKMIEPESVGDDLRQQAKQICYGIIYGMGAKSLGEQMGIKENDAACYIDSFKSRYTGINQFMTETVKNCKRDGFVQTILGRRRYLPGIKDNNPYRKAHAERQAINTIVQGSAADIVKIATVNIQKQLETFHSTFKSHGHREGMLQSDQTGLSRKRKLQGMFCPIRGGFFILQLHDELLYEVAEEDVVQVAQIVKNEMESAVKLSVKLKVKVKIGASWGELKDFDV
Test: Polθ Polymerase Domain WT KI Assay (PicoGreen)
Assay type: biochemical
Conditions: 100 nM DNA substrate, 0.156 nM Polθ, initial rates vs inhibitor concentration
In short: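 E. coli-expressed human Polθ polymerase domain (aa1820-2590) on annealed DNA II Short/Long primer-template (1.2:1), in 25 mM Tris pH 7.5, NaCl, 5% glycerol, 0.01% Triton X-100, 0.1 mg/ml BSA, 1 mM DTT, 1% DMSO. EDTA-quenched timepoints to 180 min, PicoGreen fluorescence. Initial rates vs inhibitor concentration fitted four-parameter for KI.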

pKi	SMILES
8.09	Cc1cc(C(F)(F)F)cc(N2C(=O)C[C@@H]3CN(CCN4CC[C@@H](C(=O)N(C)C)C4)c4c(C)cccc4N(C)C(=O)[C@H]32)n1 [Example 73, (R)-1-(2-((3aR,11aS)-6,10-Dimethyl-1-(6-methyl-4-(trifluoromethyl)pyridin-2-yl)-2,11-dioxo-1,2,3,3a,4,10,11,11a-octahydro-5H-benzo[b]pyrrolo[2,3-f][1,4]diazocin-5-yl)ethyl)-N,N-dimethylpyrrolidine-3-carboxamide]
9.16	Cc1cc(C(F)(F)F)cc(N2C(=O)C[C@@H]3CN(CCN4CC[C@H](C#N)C4)c4c(C)cccc4N(C)C(=O)[C@H]32)n1 [Example 70, (S)-1-(2-((3aR,11aS)-6,10-Dimethyl-1-(6-methyl-4-(trifluoromethyl)pyridin-2-yl)-2,11-dioxo-1,2,3,3a,4,10,11,11a-octahydro-5H-benzo[b]pyrrolo[2,3-f][1,4]diazocin-5-yl)ethyl)pyrrolidine-3-carbonitrile]
9.51	Cc1cc(C(F)(F)F)cc(N2C(=O)C[C@@H]3CN(CCN4CCN(C)C[C@H]4C)c4c(C)cccc4N(C)C(=O)[C@H]32)n1 [Example 48, (3aR,11aS)-5-(2-((R)-2,4-Dimethylpiperazin-1-yl)ethyl)-6,10-dimethyl-1-(6-methyl-4-(trifluoromethyl)pyridin-2-yl)-1,3a,4,5,10,11a-hexahydro-2H-benzo[b]pyrrolo[2,3-f][1,4]diazocine-2,11(3H)-dione dihydrochloride]
7.93	Cc1cc(C(F)(F)F)cc(N2C(=O)C[C@@H]3CN(CC(C)O)c4c(F)cccc4N(C)C(=O)[C@H]32)n1 (mixture of isomers) [Example 130a, (3aR,11aS)-6-fluoro-5-((S/R)-2-hydroxypropyl)-10-methyl-1-(6-methyl-4-(trifluoromethyl)pyridin-2-yl)-1,3a,4,5,10,11a-hexahydro-2H-benzo[b]pyrrolo[2,3-f][1,4]diazocine-2,11(3H)-dione]
7.86	Cc1cc(C(F)(F)F)cc(N2C(=O)C[C@@H]3CN(CC4COCCN4)c4c(F)cccc4N(C)C(=O)[C@H]32)n1 (single isomer, unassigned) [Example 106a]
8.74	Cc1cc(C(F)(F)F)cc(N2C(=O)C[C@@H]3CN(C[C@H]4COCCN4)c4c(C)cccc4N(C)C(=O)[C@H]32)n1 (racemic) [Example 112b, (3aR,11aS)-6,10-Dimethyl-1-(6-methyl-4-(trifluoromethyl)pyridin-2-yl)-5-(((S/R)-morpholin-3-yl)methyl)-1,3a,4,5,10,11a-hexahydro-2H-benzo[b]pyrrolo[2,3-f][1,4]diazocine-2,11(3H)-dione]
8.66	Cc1cc(C(F)(F)F)cc(N2C(=O)C[C@@H]3CN(CCN4CCN(C)C[C@@H]4C)c4c(Cl)cccc4N(C)C(=O)[C@H]32)n1 [Example 10, (3aR,11aS)-6-Chloro-5-(2-((S)-2,4-dimethylpiperazin-1-yl)ethyl)-10-methyl-1-(6-methyl-4-(trifluoromethyl)pyridin-2-yl)-1,3a,4,5,10,11a-hexahydro-2H-benzo[b]pyrrolo[2,3-f][1,4]diazocine-2,11(3H)-dione Hydrochloride]
8.61	CNCCNCCN1C[C@H]2CC(=O)N(c3cc(C(F)(F)F)cc(C)n3)[C@@H]2C(=O)N(C)c2cccc(C)c21 [Example 17, (3aR,11aS)-6,10-Dimethyl-1-(6-methyl-4-(trifluoromethyl)pyridin-2-yl)-5-(2-((2-(methylamino)ethyl)amino)ethyl)-1,3a,4,5,10,11a-hexahydro-2H-benzo[b]pyrrolo[2,3-f][1,4]diazocine-2,11(3H)-dione]
8.75	Cc1cc(C(F)(F)F)cc(N2C(=O)C[C@@H]3CN(C[C@H]4CCNC[C@H]4C#N)c4c(Cl)cccc4N(C)C(=O)[C@H]32)n1 (relative stereo) [Example 102, (rel-cis)-4-(((3aR,11aS)-6-Chloro-10-methyl-1-(6-methyl-4-(trifluoromethyl)pyridin-2-yl)-2,11-dioxo-1,2,3,3a,4,10,11,11a-octahydro-5H-benzo[b]pyrrolo[2,3-f][1,4]diazocin-5-yl)methyl)piperidine-3-carbonitrile hydrochloride]
8.57	Cc1cc(C(F)(F)F)cc(N2C(=O)C[C@@H]3CN(CCN4CCN(CCF)CC4)c4c(Cl)cccc4N(C)C(=O)[C@H]32)n1 [Example 26, (3aR,11aS)-6-Chloro-5-(2-(4-(2-fluoroethyl)piperazin-1-yl)ethyl)-10-methyl-1-(6-methyl-4-(trifluoromethyl)pyridin-2-yl)-1,3a,4,5,10,11a-hexahydro-2H-benzo[b]pyrrolo[2,3-f][1,4]diazocine-2,11(3H)-dione]
8.76	CC(=O)N1CCN(CCN2C[C@H]3CC(=O)N(c4cc(C(F)(F)F)cc(C)n4)[C@@H]3C(=O)N(C)c3cccc(Cl)c32)CC1 [Example 33, (3aR,11aS)-5-(2-(4-Acetylpiperazin-1-yl)ethyl)-6-chloro-10-methyl-1-(6-methyl-4-(trifluoromethyl)pyridin-2-yl)-1,3a,4,5,10,11a-hexahydro-2H-benzo[b]pyrrolo[2,3-f][1,4]diazocine-2,11(3H)-dione]
8.73	Cc1cc(C(F)(F)F)cc(N2C(=O)C[C@@H]3CN(CCOCCN(C)C)c4c(Cl)cccc4N(C)C(=O)[C@H]32)n1 [Example 89, (3aR,11aS)-6-Chloro-5-(2-(2-(dimethylamino)ethoxy)ethyl)-10-methyl-1-(6-methyl-4-(trifluoromethyl)pyridin-2-yl)-1,3a,4,5,10,11a-hexahydro-2H-benzo[b]pyrrolo[2,3-f][1,4]diazocine-2,11(3H)-dione hydrochloride]
8.58	Cc1cc(C(F)(F)F)cc(N2C(=O)C[C@@H]3CN(CCN4CC[C@@H](O)C4)c4c(Cl)cccc4N(C)C(=O)[C@H]32)n1 [Example 31, (3aR,11aS)-6-Chloro-5-(2-((R)-3-hydroxypyrrolidin-1-yl)ethyl)-10-methyl-1-(6-methyl-4-(trifluoromethyl)pyridin-2-yl)-1,3a,4,5,10,11a-hexahydro-2H-benzo[b]pyrrolo[2,3-f][1,4]diazocine-2,11(3H)-dione]
8.92	Cc1cc(C(F)(F)F)cc(N2C(=O)C[C@@H]3CN(CC(=O)N4CCN(C)CC4)c4c(C)cccc4N(C)C(=O)[C@H]32)n1 [Example 93, (3aR,11aS)-6,10-Dimethyl-1-(6-methyl-4-(trifluoromethyl)pyridin-2-yl)-5-(2-(4-methylpiperazin-1-yl)-2-oxoethyl)-1,3a,4,5,10,11a-hexahydro-2H-benzo[b]pyrrolo[2,3-f][1,4]diazocine-2,11(3H)-dione]
8.53	Cc1cc(C(F)(F)F)cc(N2C(=O)C[C@@H]3CN(CCN4CC[C@@H](C#N)C4)c4c(Cl)cccc4N(C)C(=O)[C@H]32)n1 [Example 40, (R)-1-(2-((3aR,11aS)-6-Chloro-10-methyl-1-(6-methyl-4-(trifluoromethyl)pyridin-2-yl)-2,11-dioxo-1,2,3,3a,4,10,11,11a-octahydro-5H-benzo[b]pyrrolo[2,3-f][1,4]diazocin-5-yl)ethyl)pyrrolidine-3-carbonitrile]
9.07	Cc1cc(C(F)(F)F)cc(N2C(=O)C[C@@H]3CNc4c(Cl)cccc4N(C)C(=O)[C@H]32)n1 [Example 2, (3aR,11aS)-6-Chloro-10-methyl-1-(6-methyl-4-(trifluoromethyl)pyridin-2-yl)-1,3a,4,5,10,11a-hexahydro-2H-benzo[b]pyrrolo[2,3-f][1,4]diazocine-2,11(3H)-dione]
8.38	Cc1cc(C(F)(F)F)cc(N2C(=O)C[C@@H]3CN(CCN4CC[C@H](C#N)C4)c4c(Cl)cccc4N(C)C(=O)[C@H]32)n1 [Example 39, (S)-1-(2-((3aR,11aS)-6-Chloro-10-methyl-1-(6-methyl-4-(trifluoromethyl)pyridin-2-yl)-2,11-dioxo-1,2,3,3a,4,10,11,11a-octahydro-5H-benzo[b]pyrrolo[2,3-f][1,4]diazocin-5-yl)ethyl)pyrrolidine-3-carbonitrile]
8.30	Cc1cc(C(F)(F)F)cc(N2C(=O)C[C@@H]3CN(CCN4CC[C@@H](C(=O)N(C)C)C4)c4c(Cl)cccc4N(C)C(=O)[C@H]32)n1 [Example 42, (R)-1-(2-((3aR,11aS)-6-Chloro-10-methyl-1-(6-methyl-4-(trifluoromethyl)pyridin-2-yl)-2,11-dioxo-1,2,3,3a,4,10,11,11a-octahydro-5H-benzo[b]pyrrolo[2,3-f][1,4]diazocin-5-yl)ethyl)-N,N-dimethylpyrrolidine-3-carboxamide]
